Laboratory results published in patent publication US9630977B2, “Cephalosporin derivatives and pharmaceutical compositions thereof” (Legochem Biosciences, Inc., priority 2011, dated 2017).
Values after ≈ are worked out from the molar mass of the structure shown. Where two headings read alike, the source gives them in different places.

What was measured:
Format in all cases: cell-based
[1] = test system: P. aeruginosa (16 clinical isolates); assay: Antibacterial activity on representative drug-resistance bacteria: number of clinical isolates per MIC value; settings: P. aeruginosa (N = 16)
Description: (§1) The in vitro antibacterial activity was evaluated by measuring MIC90 (ug/mL) of each of the compounds of Examples 1 to 68, which is defined as the lowest concentration of an antibiotic that will inhibit the visible growth of 90% of microorganisms after incubation as compared with a control group to which the antibiotic is not treated. MIC90 values were measured by the broth microdilution method developed by the Clinical and Laboratory Standards Institute (CLSI) (see CLSI M7-A5, Methods for Dilution Antimicrobial Susceptibility Test for Bacteria that Grow Aerobically-Fifth Edition (2000): CLSI, Villanova, Pa.).
(§2) Test compounds each (the cephalosporin derivative compounds prepared in Examples 1 to 68) were dissolved in DMSO at the concentration of 10,240 ug/mL, were diluted by two fold with DMSO, and then were diluted by twenty fold with sterilized distilled water. The final concentration in the antibacterial activity test was in the range of […] to 128 ug/mL, and the final concentration of DMSO used as an adjuvant was 2.5% (V/V).

[2] = test system: K. pneumoniae (38 clinical isolates); assay: as above; settings: K. pneumomiae (N = 38)
Description: as §1, §2

[3] = test system: A. baumannii (6 clinical isolates); assay: as above; settings: MIC >16 ug/mL; A. baumanni (N = 6)
Description: as §1, §2

[4] = test system: A. baumannii 52; assay: In vitro antibacterial activity test (broth microdilution); settings: A. baumannii 52
Summary of the method: (§3)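 Susceptibility of clinical bacterial isolates is measured by CLSI broth microdilution. Final drug concentrations range 0.0626–128 ug/mL in 2.5% (V/V) DMSO; MIC90 recorded as lowest concentration blocking visible growth of 90% of organisms.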

[5] = test system: P. aeruginosa 43; assay: as above; settings: P. aeruginosa 43
Summary of the method: as §3

[6] = test system: K. pneumoniae β14; assay: as above
Summary of the method: as §3

[7] = test system: P. aeruginosa 40; assay: as above
Summary of the method: as §3

[8] = test system: M. catarrhalis 2524; assay: as above; settings: Moraxella catarrhalis; M. catarrhalis 2524; read-out: MIC90
Summary of the method: as §3

[9] = test system: P. aeruginosa 6065Y; assay: as above; settings: Pseudomonas aeruginosa, read-out: MIC90
Summary of the method: as §3

[10] = test system: K. pneumoniae 2011E; assay: as above; settings: K. pneumoniae 2011E
Summary of the method: as §3

[11] = test system: A. baumannii 49; assay: as above; settings: A. baumannii 49
Summary of the method: as §3

[12] = test system: E. coli β4; assay: as above
Summary of the method: as §3

[13] = test system: K. pneumoniae β10; assay: as above; settings: K. pneumoniae β10
Summary of the method: as §3

[14] = test system: E. coli AG100; assay: as above
Summary of the method: as §3

[15] = test system: P. aeruginosa 37; assay: as above
Summary of the method: as §3

[16] = test system: A. calcoaceticus ATCC15473; assay: as above; settings: A. calcoaceticus ATCC15473
Summary of the method: as §3

[17] = test system: K. pneumoniae β11; assay: as above; settings: K. pneumoniae β11
Summary of the method: as §3

[18] = test system: K. pneumoniae β9; assay: as above; settings: K. pneumoniae β9
Summary of the method: as §3

[19] = test system: K. pneumoniae β13; assay: as above; settings: K. pneumoniae β13
Summary of the method: as §3

[20] = test system: A. baumannii 46; assay: as above; settings: A. baumannii 46
Summary of the method: as §3

[21] = test system: P. aeruginosa 1912E; assay: as above
Summary of the method: as §3

[22] = test system: E. cloacae β19; assay: as above
Summary of the method: as §3

[23] = Acinetobacter baumannii, read-out: MIC90
[24] = Pseudomonas aeruginosa, read-out: MIC90
[25] = Klebsiella pneumoniae, read-out: MIC90
[26] = Pseudomonas aeruginosa, 40, P. aeruginosa 40, read-out: MIC90
[27] = Klebsiella pneumoniae, 2011E, read-out: MIC90
[28] = Escherichia coli, read-out: MIC90
[29] = Escherichia coli, AG100, E. coli AG100, read-out: MIC90
[30] = Pseudomonas aeruginosa, 37, P. aeruginosa 37, read-out: MIC90
[31] = Acinetobacter calcoaceticus, read-out: MIC90
[32] = Pseudomonas aeruginosa, 1912E, read-out: MIC90
[33] = Enterobacter cloacae, read-out: MIC90

Row | MIC90 [4, 23] | MIC90 [5, 24] | MIC90 [6, 25] | MIC90 [7, 26] | MIC90 [8] | MIC90 [9] | MIC90 [10, 27] | MIC90 [11, 23] | MIC90 [12, 28] | MIC90 [13, 25] | MIC90 [14, 29] | MIC90 [15, 30] | MIC90 [16, 31] | MIC90 [17, 25] | MIC90 [18, 25] | MIC90 [19, 25] | MIC90 [20, 23] | MIC90 [21, 32] | MIC90 [22, 33] | SMILES | further results
1 |  |  |  |  |  |  |  |  |  |  |  |  |  |  |  |  |  |  |  | Cn1c(N)c(NC(=O)NCCN)c[n+]1CC1=C(C(=O)O)N2C(=O)[C@@H](NC(=O)/C(=N\OC(C)(C)C(=O)[O-])c3nsc(N)n3)[C@H]2SC1 [CXA-101, reference compound] | number of clinical isolates that showed the respective MIC value ([1]; MIC 2 ug/mL): 4; number of clinical isolates that showed the respective MIC value ([1]; MIC 4 ug/mL): 4; number of clinical isolates that showed the respective MIC value ([1]; MIC 8 ug/mL): 1; number of clinical isolates that showed the respective MIC value ([1]; MIC >16 ug/mL): 7; number of clinical isolates that showed the respective MIC value ([2]; MIC 1 ug/mL): 1; number of clinical isolates that showed the respective MIC value ([2]; MIC 2 ug/mL): 1; number of clinical isolates that showed the respective MIC value ([2]; MIC 16 ug/mL): 1; number of clinical isolates that showed the respective MIC value ([2]; MIC >16 ug/mL): 35; number of clinical isolates that showed the respective MIC value [3]: 6
2 | > 128 µg/mL | 1 µg/mL (≈ 1.21 µM) | 8 µg/mL (≈ 9.66 µM) | 1 µg/mL (≈ 1.21 µM) | 1 µg/mL (≈ 1.21 µM) | 2 µg/mL (≈ 2.42 µM) | 2 µg/mL (≈ 2.42 µM) | > 128 µg/mL | 0.25 µg/mL (≈ 0.302 µM) | 0.25 µg/mL (≈ 0.302 µM) | 0.25 µg/mL (≈ 0.302 µM) | 8 µg/mL (≈ 9.66 µM) | 1 µg/mL (≈ 1.21 µM) | 64 µg/mL (≈ 77.3 µM) | 0.25 µg/mL (≈ 0.302 µM) | < 0.0625 µg/mL | 4 µg/mL (≈ 4.83 µM) | 1 µg/mL (≈ 1.21 µM) | 4 µg/mL (≈ 4.83 µM) | CC(C)(O/N=C(\C(=O)N[C@@H]1C(=O)N2C(C(=O)[O-])=C(/C=C/C[n+]3cnc(N)c(NC(=O)CCNC(=O)c4cc(=O)c(O)cn4O)c3)CSC12)c1csc(N)n1)C(=O)O (stereo partly drawn) [Compound 12] | 
3 | 16 µg/mL (≈ 20 µM) | 0.25 µg/mL (≈ 0.312 µM) | 32 µg/mL (≈ 39.9 µM) | 0.125 µg/mL (≈ 0.156 µM) | 2 µg/mL (≈ 2.49 µM) | 1 µg/mL (≈ 1.25 µM) | 2 µg/mL (≈ 2.49 µM) | 8 µg/mL (≈ 9.98 µM) | 0.125 µg/mL (≈ 0.156 µM) | 4 µg/mL (≈ 4.99 µM) | < 0.0625 µg/mL | 0.125 µg/mL (≈ 0.156 µM) | 1 µg/mL (≈ 1.25 µM) | 16 µg/mL (≈ 20 µM) | < 0.0625 µg/mL | < 0.0625 µg/mL | 4 µg/mL (≈ 4.99 µM) | 0.5 µg/mL (≈ 0.624 µM) | 1 µg/mL (≈ 1.25 µM) | CC(C)(O/N=C(\C(=O)N[C@@H]1C(=O)N2C(C(=O)[O-])=C(C[n+]3cnc(N)c(NCCCCNC(=O)c4cc(=O)c(O)cn4O)c3)CSC12)c1csc(N)n1)C(=O)O (stereo partly drawn) [Compound 7] | 

Row | SMILES | MIC90 [4, 23] | MIC90 [5, 24] | MIC90 [6, 25] | MIC90 [7, 26] | MIC90 [8] | MIC90 [9] | MIC90 [10, 27] | MIC90 [11, 23] | MIC90 [12, 28] | MIC90 [13, 25] | MIC90 [14, 29] | MIC90 [15, 30] | MIC90 [16, 31] | MIC90 [17, 25] | MIC90 [18, 25] | MIC90 [19, 25] | MIC90 [20, 23] | MIC90 [21, 32] | MIC90 [22, 33] | further results
4 | CC(C)(O/N=C(\C(=O)N[C@@H]1C(=O)N2C(C(=O)[O-])=C(/C=C/C[n+]3cnc(N)c(NCCNC(=O)c4cc(=O)c(O)cn4O)c3)CSC12)c1csc(N)n1)C(=O)O (stereo partly drawn) [Compound 10] |  |  |  |  | 0.5 µg/mL (≈ 0.625 µM) | 4 µg/mL (≈ 5 µM) |  |  |  |  |  |  |  |  |  |  |  |  |  | MIC90 [4]: >128 µg/mL; MIC90 [5]: 1 µg/mL (≈ 1.25 µM); MIC90 [6]: 8 µg/mL (≈ 10 µM); MIC90 ([7]; P. aeruginosa 40): 1 µg/mL (≈ 1.25 µM); MIC90 [10]: 2 µg/mL (≈ 2.5 µM); MIC90 [11]: >128 µg/mL; MIC90 [12]: 0.5 µg/mL (≈ 0.625 µM); MIC90 [13]: <0.0625 µg/mL; MIC90 ([14]; E. coli AG100): 0.125 µg/mL (≈ 0.156 µM); MIC90 ([15]; P. aeruginosa 37): 2 µg/mL (≈ 2.5 µM); MIC90 [16]: 2 µg/mL (≈ 2.5 µM); MIC90 [17]: 32 µg/mL (≈ 40 µM); MIC90 [18]: 0.25 µg/mL (≈ 0.313 µM); MIC90 [19]: 2 µg/mL (≈ 2.5 µM); MIC90 [20]: 8 µg/mL (≈ 10 µM); MIC90 [21]: 4 µg/mL (≈ 5 µM); MIC90 [22]: 0.5 µg/mL (≈ 0.625 µM)
